Reference: patent EP4591884A1, “LIPID COMPOUND FOR NUCLEIC ACID DELIVERY, AND RELATED USE AND MEDICAMENT COMPRISING SAME” (Beijing Baishihekang Pharmaceutical Technology (Bsjpharma) …, priority 2022, dated 2024)

Experiments:
Assay in all cases: in vitro small nucleic acid delivery by lipid-nucleic acid mixture, cell uptake by flow cytometry
Type in all cases: cell-based, human
Settings in all cases: lipid 1.25 ug/mL, fluorescently labeled PGY-ssRNA-26, final 100 nM, 9 h incubation, flow cytometry fluorescence
[1] = test system: HPAC cells
Method: (§1) Culture the human pancreatic acinar epithelial cancer cell line HPAC, human large cell lung cancer cell line H460, and human embryonic kidney cell line HEK293T (purchased from the Cell Resource Center, Institute of Basic Medicine, Chinese Academy of Medical Sciences) used in the experiments in a 37°C, 5%CO2 incubator. Culture the HPAC cells in DMEM/F12 medium, the H460 cells in RPMI-1640 medium, and the 293T cells in DMEM medium containing 10% fetal bovine serum and 1% antibiotics (penicillin 100 U/mL & streptomycin […]). Culture the cells to the logarithmic growth phase with a cell density of 6 × 10^5/1 mL medium/well; divide the cells into 12-well plates (1 mL medium/well), and incubate at 37°C overnight (12 h), and then conduct subsequent experiments.
(§2) Add 5 µL of nucleic acid and 95 µL of DEPC-treated water to a 2 mL glass tube, mix homogeneously, add a certain amount of lipid monomer, mix thoroughly, heat in a 90°C water bath for 15 min, and then cool naturally to obtain a mixture of nucleic acid and lipid.
(§3) 3. Detection of cell uptake of nucleic acids delivered by lipids inside cells by means of flow cytometry (CFlow) • 1) Main experimental instruments and equipment: 10 cm cell culture dishes, 12-well cell culture plates, pipettes, transfer tubes, optical microscope, flow cytometer CytoFLEX instrument (purchased from Beckman, USA) • 2) Main experimental reagents: Model establishment and transfection: artificially synthesized lipid monomers and nucleic acids as shown in the table • 3) Culture the human pancreatic acinar epithelial cancer cell line HPAC cells, human large cell lung cancer cell line H460 cells, and human embryonic kidney cell line HEK293T cells used in the experiment to the logarithmic growth phase, and then divide them into 12-well plates at a cell density of 6×10^5/mL culture medium/well; incubate the 12-well plates at 37°C overnight (12 h), and then conduct subsequent experiments. • 4) The experimental groups are as follows: • a) Blank group: refers to untreated cells, and this group serves as a blank control group. • b) Free uptake group: directly add 5 µL of fluorescently labeled nucleic acid solution (stock concentration 20 µM), and this group serves as the negative control group. • c) Lipid-nucleic acid mixture treatment group: add the mixture of lipids and fluorescently labeled nucleic acids prepared in step 2 to the cells, and mix homogeneously. The final concentration of nucleic acids is 100 nM. • 5) After incubating with cells for 9 h, wash the cells three times with PBS, resuspend the cells with PBS (self-prepared), and use a flow cytometer CytoFLEX instrument (purchased from Beckman, USA) to detect the fluorescence intensity of the cells in the sample wells.

[2] = test system: H460 cells
Method: as §1, §2, §3

[3] = test system: 293T cells
Method: as §1, §2, §3

With `CCCCCCCCCCCCCCCCCCCCCCCCCCCCCCCC[C@@H](O)[C@@H](N)CO` [Sphingosine (d35:0), (2S,3R)-2-aminopentatriacontane-1,3-diol] the “Lipid delivery group (1.25 ug/mL)” value [1] was 51.46%, the “Lipid delivery group (1.25 ug/mL)” value [2] was 69.95% and the “Lipid delivery group (1.25 ug/mL)” value [3] was 43.03%.
For `CCCCCCCCCCCCCCCCCCCCCCCCCCCCCC/C=C/[C@@H](O)[C@@H](N)CO` [Sphingosine (d35:1), (2S,3R,E)-2-aminopentatriacont-4-ene-1,3-diol], the “Lipid delivery group (1.25 ug/mL)” value [1] was 53.75%, the “Lipid delivery group (1.25 ug/mL)” value [2] was 64.66% and the “Lipid delivery group (1.25 ug/mL)” value [3] was 50.79%.
For `CCCCCCCCCCCCCCCCCCCCCCCCCCCCCCCCC[C@@H](O)[C@@H](N)CO` [Sphingosine (d36:0), (2S,3R)-2-aminohexatriacontane-1,3-diol], the “Lipid delivery group (1.25 ug/mL)” value [1] was 58.22%, the “Lipid delivery group (1.25 ug/mL)” value [2] was 62.71% and the “Lipid delivery group (1.25 ug/mL)” value [3] was 40.66%.
With `CCCCCCCCCCCCCCCCCCCCCCCCCCCCCCC/C=C/[C@@H](O)[C@@H](N)CO` [Sphingosine (d36:1), (2S,3R,E)-2-aminohexatriacont-4-ene-1,3-diol] the “Lipid delivery group (1.25 ug/mL)” value [1] was 48.77%, the “Lipid delivery group (1.25 ug/mL)” value [2] was 48.37% and the “Lipid delivery group (1.25 ug/mL)” value [3] was 25.23%.
